Test results: patent US9879043B1, “Synthesis of non-natural cofactor analogs of S-adenosyl-L-methionine using methionine adenosyltransferase” (University of Kentucky Research Foundation, priority 2013, dated 2018)

Key:
Assay type in all cases: biochemical
[1] = target: human MAT II catalytic alpha and regulatory beta subunit (hMAT2) (Homo sapiens, UniProt P31153); assay: MAT assay, turnover of S/Se-Met analogs to S(Se)AM analogs (RP-HPLC end point); settings: 2 mM Met analog, 1 mM ATP, 5 μM MAT, pH 8, 4 h, 37° C.; average of two assays
Procedure: (§1) Standard uniform assay conditions (2 mM Met analog, 1 mM ATP, 5 μM MAT, 25 mM Tris, 5 mM MgCl2, 50 mM KCl, pH 8, 4 h) were adopted to facilitate this broad assessment. For the thermophilic counterpart (mMAT), reactions were conducted at 65° C., while all other reactions were incubated at 37° C. Production of SAM analogs was determined by an RP-HPLC end point assay to afford complete analysis of the desired SAM analog and/or any corresponding degradation products known to directly derive from the desired SAM analog intermediate.
(§2) To monitor MAT reactions, analytical RP HPLC employed a Luna C18 column (5 μm, 4.6 mm×250 mm; Phenomenex, Torrance, Calif., USA) [gradient of 10% B to 40% B over 15 min, 40% B to 75% B over 5 min (A=10 mM NaH2PO4, 5 mM octane sulfonic acid, pH was adjusted to 3.5 using phosphoric acid; B=acetonitrile) flow rate=1 mL min^−1; A254].
(§3) The sMAT and mMAT reactions were conducted at 65° C. while hMATs and eMAT were incubated at 37° C. Reactions were quenched by adding an equal volume of methanol followed by centrifugation (10,000×g for 15 min) to remove the precipitated protein and product formation for each reaction was subsequently analyzed by RP-HPLC using Method D (FIG. 15, first column). For each reaction, percent yield was based upon the integration of species at 254 nm and calculated by dividing the integrated area of product and/or decomposed product by the sum of integrated area of product and/or decomposed product and the remaining substrate. The assays were repeated twice under identical conditions, and Table 2 (and FIG. 5) represents an average value of two assays. The inclusion of adenine and 5′-R-thio-5′-adenosine in these calculations is based upon the established SAM and ATP chemical decomposition pathways which indicate adenine and 5′-R-thio-5′-adenosine to only derive from SAM (not ATP). All putative products were subsequently confirmed by high resolution electrospray ionization (ESI) mass spectra with positive (+) and/or negative (−) mode.

[2] = target: human MAT II catalytic alpha subunit alone (hMAT2A) (Homo sapiens, UniProt P31153); assay: as above; settings: 2 mM Met analog, 1 mM ATP, 5 μM MAT, pH 8, 4 h, 37° C.; average of two assays
Procedure: as §1, §2, §3

[3] = target: Escherichia coli MAT (eMAT) (Escherichia coli, UniProt P0A817); assay: as above; settings: 2 mM Met analog, 1 mM ATP, 5 μM MAT, pH 8, 4 h, 37° C.; average of two assays
Procedure: as §1, with “intermediate. Putative SAM analog and SAM-derived degradative product formation was subsequently confirmed via high-resolution mass spectrometry (HRMS) analysis for all positive reactions (see Table 2).” for “intermediate.”
as §2
as §3, with “In vitro MAT reactions were conducted in a volume of 50 μl with 2 mM S/Se-alkylated analog (compounds 2-30), 1 mM ATP and 5 μM purified MAT in 25 mM Tris buffer pH 8.0, 5 mM MgCl2, 50 mM KCl for 4 h. The sMAT” for “The sMAT”

[4] = target: human MAT I catalytic subunit alpha (hMAT1A) (Homo sapiens, UniProt Q00266); assay: as above; settings: 2 mM Met analog, 1 mM ATP, 5 μM MAT, pH 8, 4 h, 37° C.; average of two assays
Procedure: as §1, §2, §3

[5] = target: T1, Methanocaldococcus jannaschii MAT (mMAT) (Methanocaldococcus jannaschii, UniProt Q58605); settings: 2 mM Met analog, 1 mM ATP, 5 μM MAT, pH 8, 4 h, 65° C.; average of two assays
T1 sequence (Q58605 1-406): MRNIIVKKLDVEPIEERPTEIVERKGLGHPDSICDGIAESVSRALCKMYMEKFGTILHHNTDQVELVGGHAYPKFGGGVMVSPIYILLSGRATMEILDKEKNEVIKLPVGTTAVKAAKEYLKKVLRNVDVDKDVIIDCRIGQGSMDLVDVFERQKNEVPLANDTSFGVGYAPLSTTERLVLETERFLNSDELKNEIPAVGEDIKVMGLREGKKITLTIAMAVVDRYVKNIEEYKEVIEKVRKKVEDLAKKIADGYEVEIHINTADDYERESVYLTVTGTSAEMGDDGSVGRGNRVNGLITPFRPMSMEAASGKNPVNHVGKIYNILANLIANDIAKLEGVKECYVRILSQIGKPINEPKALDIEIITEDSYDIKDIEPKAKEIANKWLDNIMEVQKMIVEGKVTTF
Procedure: as §1, §2, §3

[6] = target: T2, Sulfolobus solfataricus MAT (sMAT) (Saccharolobus solfataricus, UniProt Q980S9); settings: 2 mM analog, 1 mM ATP, 5 μM sMAT, pH 8.0, 4 h at 65° C.; average of two assays
T2 sequence (Q980S9 1-404): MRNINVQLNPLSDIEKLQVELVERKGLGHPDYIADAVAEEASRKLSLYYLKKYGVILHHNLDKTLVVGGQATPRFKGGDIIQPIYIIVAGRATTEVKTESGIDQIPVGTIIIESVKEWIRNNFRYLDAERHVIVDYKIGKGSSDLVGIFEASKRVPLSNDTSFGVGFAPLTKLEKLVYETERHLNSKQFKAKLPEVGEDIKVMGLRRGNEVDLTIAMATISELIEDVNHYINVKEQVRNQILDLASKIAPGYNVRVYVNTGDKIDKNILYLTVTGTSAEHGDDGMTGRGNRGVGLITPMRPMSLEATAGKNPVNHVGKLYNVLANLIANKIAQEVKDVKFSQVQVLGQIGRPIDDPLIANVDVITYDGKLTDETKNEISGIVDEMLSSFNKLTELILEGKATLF
Procedure: In-vitro sMAT assay: In vitro sMAT reactions were conducted in a volume of 50 μl with 2 mM S/Se-alkylated analog, 1 mM ATP and 5 μM purified sMAT in 25 mM Tris buffer pH 8.0, 5 mM MgCl2, 50 mM KCl for 4 h at 65° C. Reactions were quenched by adding an equal volume of methanol followed by centrifugation (10,000×g for 15 min) to remove the precipitated protein and product formation for each reaction was subsequently analyzed by reverse phase HPLC (RP-HPLC) using method described below. For each reaction, percent yield was based upon the integration of species at 254 nm and calculated by dividing the integrated area of product and/or decomposed product by the sum of integrated area of product and/or decomposed product and the remaining substrate. The assays were repeated twice under identical conditions, and Table 4 (and FIG. 17) represents an average value of two assays. The inclusion of adenine and 5′-R-thio-5′-adenosine in these calculations is based upon the established SAM and ATP chemical decomposition pathways which indicate adenine and 5′-R-thio-5′-adenosine to only derive from SAM (not ATP). All putative products were subsequently confirmed by high resolution electrospray ionization (ESI) mass spectra with positive (+) and/or negative (−) mode.
RP-HPLC method: Reactions were quenched by the addition of equal volume of methanol followed by centrifugation at 10,000 g for 15 min to remove precipitated protein before applying on an analytical Varian ProStar HPLC [Luna C18 column, 5 μm, 4.6 mm×250 mm; Phenomenex, Torrance, Calif., USA; gradient of 10% B to 40% B over 15 min, 40% B to 75% B over 5 min (A=10 mM NaH2PO4, 5 mM octane sulfonic acid, pH was adjusted to 3.5 using phosphoric acid; B=acetonitrile) flow rate=1 mL min^−1; A254].

Compound | Percentage Turn-over hMAT2 [1] | Percentage Turn-over hMAT2A [2] | Percentage Turn-over eMAT [3] | Percentage Turn-over hMAT1A [4] | Percentage Turn-over mMAT [5] | Percentage Turn-Over (sMAT) [6]
C[Se]CC[C@H](N)C(=O)O [2-Se, L-selenomethionine, reference compound] | 100% | 100% | – | – | – | –
CSCC[C@H](N)C(=O)O [compound 2, L-methionine] | 100% | 100% | – | – | – | –
CC[Se]CC[C@H](N)C(=O)O [compound 3-Se, (2S)-2-amino-4-(ethylselanyl)butanoic acid] | 82% | 53% | – | – | – | –
C#CCSCC[C@H](N)C(=O)O [compound 4, (2S)-2-amino-4-(prop-2-yn-1-ylsulfanyl)butanoic acid] | 20% | 6% | 2% | 2% | 6% | 36%
C#CC[Se]CC[C@H](N)C(=O)O [compound 4-Se, (2S)-2-amino-4-(prop-2-yn-1-ylselanyl)butanoic acid] | 58% | 44% | – | – | – | –
N#CCSCC[C@H](N)C(=O)O [compound 6, (2S)-2-amino-4-[(cyanomethyl)sulfanyl]butanoic acid] | 20% | 13% | 2% | 2% | 6% | 68%
N#CC[Se]CC[C@H](N)C(=O)O [compound 6-Se, (2S)-2-amino-4-[(cyanomethyl)selanyl]butanoic acid] | 33% | 23% | – | – | – | –
C=CCSCC[C@H](N)C(=O)O [compound 7, (2S)-2-amino-4-(prop-2-en-1-ylsulfanyl)butanoic acid] | 52% | 50% | 2% | 5% | 16% | 27%
C=CC[Se]CC[C@H](N)C(=O)O [compound 7-Se, (2S)-2-amino-4-(prop-2-en-1-ylselanyl)butanoic acid] | 59% | 42% | – | – | – | –
CCC[Se]CC[C@H](N)C(=O)O [compound 8-Se, (2S)-2-amino-4-(propylselanyl)butanoic acid] | 74% | 24% | – | – | – | –
CC(C)[Se]CC[C@H](N)C(=O)O [compound 9-Se, (2S)-2-amino-4-(propan-2-ylselanyl)butanoic acid] | 10% | 11% | – | – | – | –
C#CCC[Se]CC[C@H](N)C(=O)O [compound 10-Se, (2S)-2-amino-4-(but-3-yn-1-ylselanyl)butanoic acid] | 55% | 22% | – | – | – | –
C=C(C)C[Se]CC[C@H](N)C(=O)O [compound 12-Se, (2S)-2-amino-4-[(2-methylprop-2-en-1-yl)selanyl]butanoic acid] | 12% | 11% | – | – | – | –
CCCC[Se]CC[C@H](N)C(=O)O [compound 13-Se, (2S)-2-amino-4-(butylselanyl)butanoic acid] | 49% | 26% | – | – | – | –
CC(C)=CC[Se]CC[C@H](N)C(=O)O [compound 19-Se, (2S)-2-amino-4-[(3-methylbut-2-en-1-yl)selanyl]butanoic acid] | 15% | 9% | – | – | – | –
[N-]=[N+]=NC/C=C/C[Se]CC[C@H](N)C(=O)O [compound 23-Se, (2S)-2-amino-4-{[(2E)-4-azidobut-2-en-1-yl]selanyl}butanoic acid] | 15% | 9% | – | – | – | –
NC/C=C/C[Se]CC[C@H](N)C(=O)O [compound 24-Se, (2S)-2-amino-4-{[(2E)-4-aminobut-2-en-1-yl]selanyl}butanoic acid] | 25% | 16% | – | – | – | –
